# From US20110046223A1, “TREATMENT OF NEUROFIBROMATOSIS” (RAMOT AT TEL-AVIV UNIVERSITY LTD., priority 2006, published 2011)
# Experiments:
# [1] = system: NF-1+/+ SV40 MEFs; assay: colchicine-induced death, cell viability by MTT assay; type: cell-based, mouse; conditions: NF-1+/+ cells; 75 μM FTS or vehicle 24 h, then colchicine 4.5 h
# Protocol: (§1) Human NF-1 ST88-14 MPNST, non-NF-1 STS26T MPNST, and the different primary and SV40-immortalized NF-1 genotypes (NF-1^−/−, NF-1^+/−, and NF-1^+/+) of mouse embryonic fibroblasts (MEFs) were grown in high-glucose Dulbecco's modified Eagle's medium (DMEM) supplemented with 10% heat-inactivated fetal calf serum (both from Biological Industries, Beit Ha Emek, Israel) with 0.0004% β-mercaptoethanol added to the MEF growth medium only.
# (§2) The three primary NF-1 MEF genotypes were immortalized by transfection with SV40 whole genome DNA (a gift from Dr. Atan Gross, The Weizmann Institute of Science) using the lipofectamine transfection reagent (InvitroGen Life Technologies, Paisley, UK). One day before transfection, primary MEFs were seeded at a density of 2×10^5 cells per well in 6-well plates. To each dish we added 1 ml of DNA-lipofectamine mixture, 0.1 μg SV40 whole genome DNA, and 10 μg of lipofectamine in 1 ml of OptiMEM (InvitroGen), according to the manufacturer's instructions. The cells were split 24 h after transfection and seeded in 10-cm^2 dishes at a density of 1×10^3 to 1×10^4 cells per dish. Immortalized clones from each NF-1 genotype were collected 14 days after transfection.
# (§3) Cell viability was determined by the MTT assay.
# [2] = system: NF-1−/− and NF-1+/− SV40 MEFs; assay: as above; type: cell-based, mouse; conditions: NF-1−/− and NF-1+/− cells; 75 μM FTS or vehicle 24 h, then colchicine 4.5 h
# Protocol: as §1, §2, §3
structure (smiles),measurement,setting,value
"COc1cc2c(c(OC)c1OC)-c1ccc(OC)c(=O)cc1[C@@H](NC(C)=O)CC2 [colchicine, Acetamide, N-((7S)-5,6,7,9-tetrahydro-1,2,3,10-tetramethoxy-9-oxobenzo(a)heptalen-7-yl)-]",cell survival / colchicine-induced cell death,[1],induced death
same,cell survival / colchicine-induced cell death,[2],only a small effect on cell survival
